Reference: patent publication US20210301315A1, “METHODS FOR TREATING POLYMICROBIAL INFECTIONS” (priority 2017, published 2021)

What was measured:
[1] = test system: bacterial organisms present in patient urine sample; assay: Antibiotic Resistance (ABR) assay utilizing agar-containing medium; assay type: cell-based; conditions: for overall sensitivity of the bacteria in the sample to the antibiotic (in words): Example 2 sample
Description: Urine samples suitable for processing with this assay are collected, transported, and stored using BD Vacutainer (gray top) tubes or other suitable leak-proof sterile container. Urine samples may be held at room temperature for 48 hours before test results are compromised.
Antibiotic stocks are stored at 2-8° C. and protected from direct sunlight. Prepared antibiotic stock solutions were aliquoted into a 96-deep well plate (Thermo Fisher Scientific) to form an Antibiotic Source Plate, as shown in FIG. 11 and identified by antibiotic name and concentration (μg/mL; 10× final concentration). […] One well was designated AB-blend which contained a combination of antibiotics to ensure there was no bacterial growth.
One hundred microliters of Mueller-Hinton agar medium was aliquoted into each appropriate well position of a 96-well microplate (VIS 96/F-PS, Eppendorf). The medium was allowed to solidify at room temperature for at least 10 min.
The antibiotics (10 μL) at various concentrations were then aliquoted into desired wells from the Antibiotic Source Plate. After the antibiotics were introduced to the agar medium, the ABR microplates were allowed to sit for at least 1 hr before use. If long-term storage is required, ABR microplates containing antibiotic-infuse agar are stored at 2-8° C. in the dark.
At the time of testing, urine samples were diluted 1:20 in sterile saline and vortexed. Each patient sample utilized a single ABR microplate. Five microliters of diluted patient sample were added to each well of the room temperature microplate, the plate was sealed and incubated for 16-18 hr at 37° C.
After incubation, the plate was removed from the incubator and carefully uncovered. Two-hundred microliters of deionized water were added to each well to suspend cells present above the agar and the plates incubated at room temperature for 30 min. After 30 min, 100 μl from each well was removed to a new plate and the OD600 was determined in a spectrophotometer. Five separate reads were taken of each plate and a mean OD600 measurement calculated.
Controls include: No-antibiotic control, Negative control plate, and AB-Blend. No antibiotic control: Any well containing medium that is not infused with antibiotics to ensure viability of bacterial cells present in patient urine samples and included in each plate. […] Negative control plate: Microplate containing antibiotic-infused agar medium without addition of patient sample or cultured bacterial organisms to ensure non-contamination of reagents. AB-Blend: One or more wells containing a combination of antibiotics to ensure there is no bacterial growth.
The raw data was then “blanked” using the measurement obtained from the AB-Blend well, as depicted in Table 5.
(§1) To determine whether bacterial organisms present in the patient samples were resistant or sensitive to a particular antibiotic at a certain concentration, blanked OD readings were compared to a threshold OD600 of 0.025 (Table 6). Any OD measurement greater than or equal to this threshold was designated Resistant (R) meaning bacterial organisms present in patient sample were resistant to that particular antibiotic at that certain concentration. Any OD measurement less than this threshold was designated Sensitive (S) meaning bacterial organisms present in patient sample were sensitive to that particular antibiotic at that certain concentration.

[2] = test system: bacterial organisms present in patient urine sample; assay: Antibiotic Resistance (ABR) assay utilizing liquid growth medium; assay type: cell-based; conditions: liquid medium; for overall sensitivity of the bacteria in the sample to the antibiotic (in words): Example 4 sample
Description: Urine samples suitable for processing with this assay are collected, transported, and stored using BD Vacutainer tubes or other suitable leak-proof sterile containers. Urine samples may be held at room temperature for 48 hours before test results are compromised.
Antibiotic stocks are stored at 2-8° C. and protected from direct sunlight. Prepared antibiotic stock solutions were aliquoted into a 96-deep well plate (ThermoFisher Scientific) to form a 50× Antibiotic Source Plate and then diluted 1:5 to form a 10× Antibiotic Source Plate, as shown in FIG. 12 where each well is identified by antibiotic name and concentration (μg/mL; 10× final concentration). […] One well was assigned sodium azide to ensure no bacterial growth would be observed in that well.
Twenty microliters of each antibiotic solution were aliquoted into the pre-determined wells of a 96-well microplate (VIS 96/F-PS, Eppendorf) from the 10× Antibiotic Source Plate to create ABR testing plates for inoculation. These ABR testing plates were allowed to sit for up to 24 hours before use at 2-8° C. in the dark.
At the time of testing, urine samples were centrifuged to concentrate any bacterial cells and then mixed with liquid Mueller-Hinton medium and incubated for 6-16 hours at 37° C. After this initial incubation, the sample is diluted to 0.5-0.6 McF in saline and then 500 μl of that suspension was added to […] of Mueller-Hinton medium. One-hundred and eighty microliters of the diluted sample is then aliquoted to each well of the ABR microplate already containing 10× antibiotic solution, bringing all of the antibiotics to the desired final concentration. The plate is then sealed and incubated for 12-16 hours at 37° C.
After incubation, the plate was removed from the incubator and carefully uncovered and the OD600 was determined for each appropriate well by spectrophotometer. Five separate measurements were taken of each well on a plate and the mean OD600 measurement calculated for each well.
Controls are depicted in Table 10.
The raw data was then “blanked” using the measurement obtained from the Na-Azide well, as depicted in Table 14.
as §1, with “0.065” for “0.025”, “15). An” for “6). Any”

Structure (SMILES)	Blanked (OD600 minus AB-Blend well) ([1]; antibiotic 8 μg/mL)	Mean (OD600) ([1]; antibiotic 8 μg/mL)	Blanked (OD600 minus AB-Blend well) ([1]; antibiotic 16 μg/mL)	Mean (OD600) ([1]; antibiotic 16 μg/mL)	Blanked (OD600 minus AB-Blend well) ([1]; antibiotic 32 μg/mL)	Mean (OD600) ([1]; antibiotic 32 μg/mL)	Blanked (OD600 minus Na-Azide well) ([2]; antibiotic 8 μg/mL)	Mean (OD600) ([2]; antibiotic 8 μg/mL)	Blanked (OD600 minus Na-Azide well) ([2]; antibiotic 32 μg/mL)	Mean (OD600) ([2]; antibiotic 32 μg/mL)	overall sensitivity of the bacteria in the sample to the antibiotic (in words) [2]	overall sensitivity of the bacteria in the sample to the antibiotic (in words) [1]	Blanked (OD600 minus AB-Blend well) ([1]; antibiotic 1 μg/mL)	Mean (OD600) ([1]; antibiotic 1 μg/mL)	Blanked (OD600 minus AB-Blend well) ([1]; antibiotic 4 μg/mL)	Mean (OD600) ([1]; antibiotic 4 μg/mL)	Blanked (OD600 minus Na-Azide well) ([2]; antibiotic 1 μg/mL)	Mean (OD600) ([2]; antibiotic 1 μg/mL)	Blanked (OD600 minus Na-Azide well) ([2]; antibiotic 4 μg/mL)	Mean (OD600) ([2]; antibiotic 4 μg/mL)	other results
CC1(C)S[C@@H]2[C@H](NC(=O)[C@H](N)c3ccccc3)C(=O)N2[C@H]1C(=O)O [Ampicillin, ampicillin]	0.4496	0.4880	0.4838	0.5222	0.4440	0.4824	−0.0040	0.0417	−0.0039	0.0418	sensitive	–	–	–	–	–	–	–	–	–	Blanked (OD600 minus Na-Azide well) ([2]; antibiotic 16 μg/mL): −0.0038; Mean (OD600) ([2]; antibiotic 16 μg/mL): 0.0419
C[C@@H](O)[C@H]1C(=O)N2C(C(=O)O)=C(S[C@@H]3CN[C@H](C(=O)N(C)C)C3)[C@H](C)[C@H]12 [Meropenem, meropenem]	0.0001	0.0385	–	–	–	–	0.0039	0.0496	–	–	–	sensitive	0.0008	0.0392	0.0006	0.0390	0.1741	0.2198	0.1099	0.1556	Blanked (OD600 minus AB-Blend well) ([1]; antibiotic 2 μg/mL): 0.0004; Mean (OD600) ([1]; antibiotic 2 μg/mL): 0.0388; Blanked (OD600 minus Na-Azide well) ([2]; antibiotic 2 μg/mL): 0.1471; Mean (OD600) ([2]; antibiotic 2 μg/mL): 0.1928
CN[C@H](CC(C)C)C(=O)N[C@H]1C(=O)N[C@@H](CC(N)=O)C(=O)N[C@H]2C(=O)N[C@H]3C(=O)N[C@H](C(=O)N[C@H](C(=O)O)c4cc(O)cc(O)c4-c4cc3ccc4O)[C@H](O)c3ccc(c(Cl)c3)Oc3cc2cc(c3O[C@@H]2O[C@H](CO)[C@@H](O)[C@H](O)[C@H]2O[C@H]2C[C@](C)(N)[C@H](O)[C@H](C)O2)Oc2ccc(cc2Cl)[C@H]1O [Vancomycin, vancomycin]	–	–	–	0.4918	–	–	–	–	−0.0031	0.0426	sensitive	–	–	–	–	–	0.0047	0.0504	−0.0032	0.0425	Blanked (OD600 minus Na-Azide well) ([2]; antibiotic 2 μg/mL): −0.0022; Mean (OD600) ([2]; antibiotic 2 μg/mL): 0.0435; Blanked (OD600 minus Na-Azide well) ([2]; antibiotic 16 μg/mL): −0.0026; Mean (OD600) ([2]; antibiotic 16 μg/mL): 0.0431
O=C(O)c1cn(C2CC2)c2cc(N3CCNCC3)c(F)cc2c1=O [Ciprofloxacin, ciprofloxacin]	–	–	–	–	–	–	–	–	–	–	sensitive	sensitive	0.0024	0.0408	0.0003	0.0387	−0.0016	0.0441	−0.0034	0.0423	Blanked (OD600 minus AB-Blend well) ([1]; antibiotic 2 μg/mL): 0.0030; Mean (OD600) ([1]; antibiotic 2 μg/mL): 0.0414
CO[C@@]1(NC(=O)Cc2cccs2)C(=O)N2C(C(=O)O)=C(COC(N)=O)CS[C@@H]21 [Cefoxitin, cefoxitin]	0.0008	0.0392	0.0005	0.0389	0.0005	0.0389	0.1831	0.2288	0.1891	0.2348	–	sensitive	–	–	0.0017	0.0401	–	–	0.1745	0.2202	–
CO/N=C(\C(=O)N[C@@H]1C(=O)N2C(C(=O)O)=C(CSc3nc(=O)c(=O)[nH]n3C)CS[C@H]12)c1csc(N)n1 [Ceftriaxone, ceftriaxone]	0.0008	0.0392	0.0007	–	0.0002	0.0386	0.1992	0.2449	–	–	–	sensitive	0.0061	0.0445	0.0021	0.0405	0.2028	0.2485	0.1900	0.2357	Blanked (OD600 minus AB-Blend well) ([1]; antibiotic 2 μg/mL): 0.0048; Mean (OD600) ([1]; antibiotic 2 μg/mL): 0.0432; Blanked (OD600 minus AB-Blend well) ([1]; antibiotic 64 μg/mL): 0.0001; Mean (OD600) ([1]; antibiotic 64 μg/mL): 0.0385; Blanked (OD600 minus Na-Azide well) ([2]; antibiotic 64 μg/mL): 0.1899; Mean (OD600) ([2]; antibiotic 64 μg/mL): 0.2356
